US7226941B2, “Compound for treating angiogenesis” (HIF Bio, Inc., priority 2003, dated 2007)
One block for each compound: values may come before it.

Tests used:
Format in all cases: cell-based, human
HIF-1α = assay: Immunoblotting of HIF-1α protein in hypoxic Hep3B cells; details: hypoxia (1% O2) 18 hours, immunoblot
Method: Hep3B hepatoma cells are cultured in α-modified Eagle's medium supplemented with 10% heat-activated fetal bovine serum, 100 units/ml penicillin, and 100 μg/ml streptomycin in a humidified atmosphere containing 5% CO2 at 37° C. Oxygen tension in the incubator is held at either 140 mm Hg (20% O2, v/v, normoxia) or 7 mm Hg (1% O2, v/v, hypoxia). After 24 hour stabilization under normoxic conditions, cells are incubated under normoxic or hypoxic conditions for 18 hours in the presence or in the absence of compounds of the invention. For the immunoblotting of HIF-1α or HIF-2α in cultured cells, 20 μg of extracted proteins are separated on 6.5% SDS/polyacrylamide gels, and then transferred to an Immobilon-P membrane (Millipore). Immobilized proteins are incubated overnight at 4° C. with rat anti-HIF-1α(Chun et al., J Cell Sci 2001 114:4051-4061) or anti-HIF-2α(Novus Biologicals, Littleton, Colo.), diluted 1:5000 in 5% nonfat milk in TBS/0.1% Tween-20 (TTBS). Horseradish peroxidase-conjugated anti-rat antiserum is used as a secondary antibody and the complexes are visualized using an Enhanced Chemiluminescence Plus Kit (Amersham Pharmacia Biotec).

HIF-2α = assay: Immunoblotting of HIF-2α protein in hypoxic Hep3B cells; details: for inhibition of HIF-2α: hypoxia (1% O2) 18 hours, immunoblot
Method: Hep3B hepatoma cells are cultured in α-modified Eagle's medium supplemented with 10% […] fetal bovine serum, 100 units/ml penicillin, and 100 μg/ml streptomycin in a humidified atmosphere containing 5% CO2 at 37° C. Oxygen tension in the incubator is held at either 140 mm Hg (20% O2, v/v, normoxia) or 7 mm Hg (1% O2, v/v, hypoxia). After 24 hour stabilization under normoxic conditions, cells are incubated under normoxic or hypoxic conditions for 18 hours in the presence or in the absence of compounds of the invention. For the immunoblotting of HIF-1α or HIF-2α in cultured cells, 20 μg of extracted proteins are separated on 6.5% SDS/polyacrylamide gels, and then transferred to an Immobilon-P membrane (Millipore). Immobilized proteins are incubated overnight at 4° C. with rat anti-HIF-1α(Chun et al., J Cell Sci 2001 114:4051-4061) or anti-HIF-2α(Novus Biologicals, Littleton, Colo.), diluted 1:5000 in 5% nonfat milk in TBS/0.1% Tween-20 (TTBS). Horseradish peroxidase-conjugated anti-rat antiserum is used as a secondary antibody and the complexes are visualized using an Enhanced Chemiluminescence Plus Kit (Amersham Pharmacia Biotec).
To induce HIF-1α and HIF-2α proteins, Hep3B cells were incubated in a hypoxic chamber (1% oxygen tension) for 16 hours. […] The amounts of HIF proteins were measured by Western blotting method.

Hep3B hepatoma cells = assay: Cell cycle analysis by FACS (propidium iodide DNA content)
Method: FIG. 1a is the FACS data to analyze the cell distribution based on DNA content. […] The cell cycle analysis was performed using a Becton Dickinson FACStar flow cytometer. Cells (1-2×10^6) were plated in 10 cm culture dishes at concentrations determined to yield 70-80% confluence within 24 h. Cells were treated with DMSO or YC-1 and incubated for described time. After incubation, both adherent and floating cells were harvested, washed with 3 ml PBS and resuspended with 200 μl PBS, fixed in 75% ethanol for 30 min on ice. After washing with PBS, cells were labeled with propidium iodide (0.05 mg/ml) in the presence of RNase A (0.5 mg/ml), incubated at room temperature in the dark for 30 min. DNA content was then analyzed using FACStar flow cytometer, and then excited with an argon, water-cooled laser emitting at 488 nm. Propidium iodide was detected using a 630±20 nm band pass filter.
The compounds induce cell cycle arrest as shown in Hep3B liver tumor cells. After application of 1 μM into cultures of Hep3B cells, typically in 48 hours, 28% of the cells were in the G0/G1 phases, 15% in the G2/M phases, 57% in the S phase, and a small percentage were characterized as being in the sub-G1 phase. In the control, typically 60% of the cells were in the G0/G1 phases, 16% in the G2/M phases, and […] in the S-phase.

Hep3B cells [1] = assay: Cell viability by MTT assay; details: 0.5, 1, or 2 μM for 24, 48, or 72 h (FIG. 2)
Method: The percentages of viable cells were measured by MTT assay. […] Bars represent the mean of three separate experiments with the upper 95% confidence interval. *: p<0.05 vs. the control.
Compounds of Formula I or II can be evaluated for efficacy using the methods described above. In addition, compounds of the invention have efficacy in a cell viability assay using human cancer cells. The cells are treated with a compound of Formula I or II (at concentrations ranging from 0.5-2 μM) and buffer. Cellular viability is measured at 24, 48, and 72 hours. Treatment with the compound results in a notable decrease in cell viability.
The percentage of viable cells was measured by MTT assay. Cells were plated in 12 well plates. […] Resulting insoluble formazan was dissolved with 0.04 N HCl in isopropanol. Absorbance of purple color of formazan was measured at 570 nm with a spectrophotometer.

PARP = PARP cleavage by immunoblotting; details: 1, 2 μM for 90 h, Hep3B (FIG. 3b)
Method: (§1) The activity of caspase-3 was represented in nmoles of p-nitroaniline released per min and per ml of cellular extract. Bars represent the mean of three separate experiments with the upper 95% confidence interval. *: p<0.05 vs. the control. […] PARP cleavage was analysed by immunoblotting with a mouse anti-PARP antibody. Proteins were visualized by Enhanced Chemiluminescence Plus. The lane C is the control. […] PARP is essential for DNA-replication in the S-phase and its absence leads to apoptosis.
(§2) Referring to FIG. 3a, the caspase-3 activity increased over time to about 5 times the activity in the control after 72 h. […] Inactivation of PARP leads to cell apoptosis. PARP protein was analyzed using Western blotting with anti-PARP antibody (BIOMOL Research Laboratories, Inc), diluted 1:5000. […] For quantification of apoptosis at single cell level, based on labeling of DNA strand breaks, Terminal deoxynucleotidyl Transferase-mediated dUTP Nick End Labeling (TUNEL) assay was performed according to the manufacturer's protocol (In Situ Cell Death Detection Kit; TMR Red; Roche Diagnostics GmbH, Mannheim, Germany). It is a method for detecting the 3′—OH ends of DNA exposed during the internucleosomal cleavage that occurs during apoptosis. Incorporation of fluorescein-dUTP allows detection by FACS. […]

Hep3B cells [2] = assay: TUNEL assay of apoptosis
Method: as §1, §2

HIF = HIF activity assay (EPO enhancer luciferase reporter); details: Hep3B, 16 h at 1% O2 (FIGS. 4a-4i)
Method: The synthetic DNA coding the HIF-binding enhancer region of the EPO gene, 5-[…] ATCT-3 (SEQ. ID NO. 1), was inserted into the pGL3 promoter plasmid (Promega). To assay the HIF activity, Hep3B cells were cotransfected with the luciferase reporter gene and the plasmid cytomegalovirus-β-gal, using the calcium phosphate method. Transfected cells were split into nine aliquots and incubated for 42 h. After stabilizing, the cells were incubated for 16 h at 20% or 1% O2. They were then lysed and assayed for luciferase activity using a Biocounter M1500 luminometer (Lumac). β-gal assays were performed for normalization of transfection.

SMILES: CC(C)n1nc(-c2ccc(CO)o2)c2ccccc21 [{5-[1-(prop-2-yl)-1H-indazol-3-yl]-furan-2-yl}-methanol]
inhibition of HIF-1α (HIF-1α): strong inhibitors | inhibition of HIF-2α (HIF-2α): strong inhibitors

HIF activity (luciferase reporter) (HIF): effectively reduced
SMILES: OCc1ccc(-c2nn(Cc3ccccc3)c3ccccc23)o1 [YC-1, 3-(5′-hydroxymethyl-2′-furyl)-1-benzylindazole]
percentage of cells in the S-phase over time (FIG. 1) (Hep3B hepatoma cells; Hep3B cells, time after application): steadily increased with time after application | dose dependence of the cell cycle (S-phase) arrest (Hep3B hepatoma cells; Hep3B cultures): dose dependent up to 5 μM | effect on cell cycle (FIG. 1) (Hep3B hepatoma cells; Hep3B hepatoma cells): S-phase arrest | cell viability (Hep3B cells [1]): decreased by YC-1, dose-dependently and time-dependently | amount of the 89 kDa fragment of PARP (PARP): increased when the YC-1 dose was doubled | percentage of TUNEL-positive cells (Hep3B cells [2]; 1, 2 μM for 90 h, Hep3B (FIG. 3c)): increased dose-dependently | percentage of TUNEL-positive cells with caspase-3 inhibitor (Hep3B cells [2]; caspase-3 inhibitor Ac-DEVD-CHO pre-treated 1 h before YC-1): decreased significantly | expression of HIF-2α protein (HIF-2α; 1% oxygen 16 hours, 0.3 to 10 μg/ml, Western blotting (FIGS. 4a-4i)): effectively reduced

SMILES: OCc1ccc(-n2cnc3ccccc32)o1 [{5-[1H-benzimidazol-1-yl]-furan-2-yl}-methanol]
inhibition of HIF-1α (HIF-1α): strong inhibitors | inhibition of HIF-2α (HIF-2α): strong inhibitors
